# How the values were obtained:
# ducksalad = assay: Test C flooded paddy test; assay type: in vivo, Heteranthera limosa; details: for Plant response rating, Ducksalad: 500 g ai/ha, visual rating after 12 to 14 days
# chickweed = assay: Test C postemergence herbicide test; assay type: in vivo, Stellaria media; details: for Chickweed plant response rating: 500 g ai/ha
# Method in brief: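 Plants were grown to the 1- to 4-leaf stage (2–18 cm) and then treated postemergence, or grown to the 2-leaf stage for the flooded paddy test. They were held in a greenhouse for 12 to 14 days and then scored by eye against controls, where 0 is no effect and 100 is complete control.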
# barnyardgrass = assay: Test A pre-/postemergence herbicide test; assay type: in vivo, Echinochloa crus-galli
# Method in brief: (§1)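 Greenhouse injury scoring (0–100, complete control = 100) at approximately ten days follows simultaneous pre- and postemergence application. Soil received a directed spray after seeding; seedlings of 2–10 cm at the one- to two-leaf stage were sprayed to runoff.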
# eastern black nightshade = assay: Test C pre-/postemergence herbicide test; assay type: in vivo, Solanum ptycanthum; details: for Plant response rating (0 = no effect, 100 = complete control), Nightshade: 62 g ai/ha; for Plant response rating (0 = no effect, 100 = complete control), Nightshade / Plant response rating, Nightshade: preemergence; for Plant response rating, Nightshade: visual, 12 to 14 days; for Nightshade plant response rating: Preemergence, 500 g ai/ha, scale 0 to 100, 0 no effect, 100 complete control
# Method in brief: (§2)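 Pre/post spray; non-phytotoxic solvent + surfactant. Post-timing 1–4 leaves, 2–18 cm. Read-out: visual % control vs untreated, day 12–14, greenhouse.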
# morningglory = assay: Test A pre-/postemergence herbicide test; assay type: in vivo, Ipomoea spp.
# Method in brief: as §1
# velvetleaf = assay: Test C pre-/postemergence herbicide test; assay type: in vivo, Abutilon theophrasti; details: for Velvetleaf plant response rating: 500 g ai/ha
# Method in brief: as §2
# redroot pigweed = assay: Test A pre-/postemergence herbicide test; assay type: in vivo, Amaranthus retroflexus
# Method in brief: as §1
# large crabgrass = assay: Test C pre-/postemergence herbicide test; assay type: in vivo, Digitaria sanguinalis; details: for Crabgrass, Large plant response rating: 500 g ai/ha
# Method in brief: as §2
# bermudagrass = assay: Test C pre-/postemergence herbicide test; assay type: in vivo, Cynodon dactylon
# Method in brief: as §2
# [1] = 62 g ai/ha, scale 0 to 100 (0 no effect, 100 complete control)
# [2] = 125 g ai/ha, scale of 0 to 100, 0 is no effect, 100 is complete control
# [3] = 250 g ai/ha, scale of 0 to 100, 0 is no effect, 100 is complete control
# [4] = scale 0 to 100 (0 no effect, 100 complete control)
# [5] = Postemergence, 125 g ai/ha, scale 0 to 100, 0 no effect, 100 complete control
# [6] = Postemergence, 250 g ai/ha, scale 0 to 100, 0 no effect, 100 complete control
# [7] = postemergence, 62 g ai/ha, scale 0 to 100
# [8] = Postemergence, 500 g ai/ha, 0 to 100 scale, 0 no effect, 100 complete control
# [9] = Postemergence, 2000 g ai/ha, 0 to 100 scale, 0 no effect, 100 complete control
# [10] = Preemergence, 500 g ai/ha, visual rating, 0 to 100 scale (0 no effect, 100 complete control)
# [11] = Preemergence, 2000 g ai/ha, 0 to 100 scale, 0 no effect, 100 complete control
# [12] = 125 g ai/ha, scale 0 (no effect) to 100 (complete control)
# [13] = 125 g ai/ha, scale 0 (no effect) to 100 (complete control), visual, 12 to 14 days, preemergence
# [14] = 250 g ai/ha, scale 0 to 100 (0 no effect, 100 complete control), visual, 12 to 14 days, preemergence
# [15] = Preemergence, scale 0 to 100, 0 no effect, 100 complete control
# [16] = Postemergence, 500 g ai/ha, scale 0 to 100
# [17] = Preemergence, 500 g ai/ha, scale 0 to 100, 0 no effect, 100 complete control
# [18] = postemergence, 125 g ai/ha, scale 0 to 100
# [19] = Preemergence, 2000 g ai/ha, visual rating, 0 to 100 scale (0 no effect, 100 complete control)
smiles,measurement,setting,value
CCNC(=O)c1cc(NC(=O)c2cc(C(C)(C)C)nn2CC)ccc1F [Compound 58],Ducksalad plant response rating,ducksalad; [1],0
same,Ducksalad plant response rating,ducksalad; [2],15
same,Ducksalad plant response rating,ducksalad; [3],20
same,"Plant response rating, Ducksalad",ducksalad; [4],60
same,Chickweed plant response rating,"chickweed; Postemergence, scale 0 to 100",85
same,"Plant response rating, Chickweed",chickweed; [5],20
same,"Plant response rating, Chickweed",chickweed; [6],50
same,"Plant response rating, Chickweed",chickweed; [7],20
same,"Plant response rating, Barnyardgrass",barnyardgrass; [8],70
same,"Plant response rating, Barnyardgrass",barnyardgrass; [9],80
same,Barnyardgrass plant response rating,barnyardgrass; [10],65
same,Barnyardgrass plant response rating,barnyardgrass; [11],75
same,"Plant response rating (0 = no effect, 100 = complete control), Nightshade",eastern black nightshade,95
same,"Plant response rating, Nightshade",eastern black nightshade; [12],100
same,"Plant response rating, Nightshade","eastern black nightshade; 250 g ai/ha, scale 0 to 100 (0 no effect, 100 complete control)",100
same,Nightshade plant response rating,eastern black nightshade,100
same,"Plant response rating, Morningglory",morningglory; [8],10
same,"Plant response rating, Morningglory",morningglory; [9],0
same,Morningglory plant response rating,morningglory; [10],20
same,Morningglory plant response rating,morningglory; [11],40
same,"Plant response rating, Velvetleaf",velvetleaf; [13],100
same,"Plant response rating, Velvetleaf",velvetleaf; [14],100
same,Velvetleaf plant response rating,"velvetleaf; Postemergence, scale 0 to 100",60
same,"Plant response rating, Velvetleaf",velvetleaf; [6],35
same,Velvetleaf plant response rating,velvetleaf; [15],100
same,"Plant response rating, Velvetleaf",velvetleaf; [7],10
same,"Plant response rating, Pigweed",redroot pigweed; [8],70
same,"Plant response rating, Pigweed",redroot pigweed; [9],90
same,Pigweed plant response rating,redroot pigweed; [10],100
same,Pigweed plant response rating,redroot pigweed; [11],100
same,"Plant response rating (0 = no effect, 100 = complete control), Crabgrass, Large","large crabgrass; 62 g ai/ha, preemergence",90
same,"Plant response rating, Crabgrass, Large",large crabgrass; [13],95
same,"Plant response rating, Crabgrass, Large",large crabgrass; [14],95
same,"Crabgrass, Large plant response rating","large crabgrass; Postemergence, scale 0 to 100",30
same,"Plant response rating, Crabgrass, Large",large crabgrass; [5],5
same,"Plant response rating, Crabgrass, Large",large crabgrass; [6],15
same,"Crabgrass, Large plant response rating",large crabgrass; [15],95
same,"Plant response rating, Crabgrass, Large",large crabgrass; [7],5
same,"Plant response rating (0 = no effect, 100 = complete control), Bermudagrass","bermudagrass; 62 g ai/ha, preemergence",90
same,"Plant response rating, Bermudagrass",bermudagrass; [13],100
same,"Plant response rating, Bermudagrass",bermudagrass; [14],100
same,Bermudagrass plant response rating,bermudagrass; [16],10
same,"Plant response rating, Bermudagrass",bermudagrass; [5],5
same,Bermudagrass plant response rating,"bermudagrass; Postemergence, 250 g ai/ha, scale 0 to 100",10
same,Bermudagrass plant response rating,bermudagrass; [17],100
same,"Plant response rating, Bermudagrass",bermudagrass; [7],0
CCOC(=O)c1cc(NC(=O)c2cc(C(C)(C)C)nn2CC)ccc1OC [Compound 96],Ducksalad plant response rating,ducksalad; [1],45
same,Ducksalad plant response rating,ducksalad; [2],45
same,Ducksalad plant response rating,ducksalad; [3],75
same,"Plant response rating, Ducksalad",ducksalad; [4],90
same,Chickweed plant response rating,"chickweed; Postemergence, scale 0 to 100",100
same,"Plant response rating, Chickweed",chickweed; [6],100
same,"Plant response rating, Chickweed",chickweed; [18],100
same,"Plant response rating, Chickweed",chickweed; [7],100
same,Barnyardgrass plant response rating,barnyardgrass; [8],60
same,"Plant response rating, Barnyardgrass",barnyardgrass; [9],80
same,Barnyardgrass plant response rating,barnyardgrass; [10],70
same,Barnyardgrass plant response rating,barnyardgrass; [11],90
same,"Plant response rating (0 = no effect, 100 = complete control), Nightshade",eastern black nightshade,90
same,"Plant response rating, Nightshade",eastern black nightshade; [12],95
same,Nightshade plant response rating,eastern black nightshade,100
same,Morningglory plant response rating,morningglory; [8],10
same,"Plant response rating, Morningglory",morningglory; [9],15
same,Morningglory plant response rating,morningglory; [10],25
same,Morningglory plant response rating,morningglory; [11],70
same,"Plant response rating, Velvetleaf",velvetleaf; [13],50
same,Velvetleaf plant response rating,"velvetleaf; Postemergence, scale 0 to 100",95
same,"Plant response rating, Velvetleaf",velvetleaf; [6],70
same,Velvetleaf plant response rating,velvetleaf; [15],100
same,"Plant response rating, Velvetleaf",velvetleaf; [18],70
same,"Plant response rating, Velvetleaf",velvetleaf; [7],40
same,Pigweed plant response rating,redroot pigweed; [8],95
same,"Plant response rating, Pigweed",redroot pigweed; [9],100
same,Pigweed plant response rating,redroot pigweed; [10],100
same,Pigweed plant response rating,redroot pigweed; [11],100
same,"Plant response rating (0 = no effect, 100 = complete control), Crabgrass, Large","large crabgrass; 62 g ai/ha, preemergence",85
same,"Plant response rating, Crabgrass, Large",large crabgrass; [13],100
same,"Plant response rating, Crabgrass, Large",large crabgrass; [14],100
same,"Crabgrass, Large plant response rating","large crabgrass; Postemergence, scale 0 to 100",5
same,"Plant response rating, Crabgrass, Large",large crabgrass; [6],5
same,"Crabgrass, Large plant response rating",large crabgrass; [15],100
same,"Plant response rating, Crabgrass, Large",large crabgrass; [18],0
same,"Plant response rating, Crabgrass, Large",large crabgrass; [7],0
same,"Plant response rating (0 = no effect, 100 = complete control), Bermudagrass","bermudagrass; 62 g ai/ha, preemergence",40
same,"Plant response rating, Bermudagrass",bermudagrass; [13],80
same,"Plant response rating, Bermudagrass",bermudagrass; [14],85
same,Bermudagrass plant response rating,bermudagrass; [16],5
same,"Plant response rating, Bermudagrass",bermudagrass; [6],5
same,Bermudagrass plant response rating,bermudagrass; [17],100
same,"Plant response rating, Bermudagrass",bermudagrass; [18],0
same,"Plant response rating, Bermudagrass",bermudagrass; [7],0
CC(=NO)c1cccc(NC(=O)c2cc(C(C)(C)C)nn2CCF)c1 [Compound 115],Ducksalad plant response rating,ducksalad; [1],30
same,Ducksalad plant response rating,ducksalad; [2],75
same,Ducksalad plant response rating,ducksalad; [3],85
same,"Plant response rating, Ducksalad",ducksalad; [4],90
same,Chickweed plant response rating,"chickweed; Postemergence, scale 0 to 100",100
same,"Plant response rating, Chickweed",chickweed; [6],100
same,"Plant response rating, Chickweed",chickweed; [18],100
same,"Plant response rating, Chickweed",chickweed; [7],100
same,Barnyardgrass plant response rating,barnyardgrass; [8],70
same,"Plant response rating, Barnyardgrass",barnyardgrass; [9],80
same,Barnyardgrass plant response rating,barnyardgrass; [10],70
same,Barnyardgrass plant response rating,barnyardgrass; [19],85
same,"Plant response rating (0 = no effect, 100 = complete control), Nightshade",eastern black nightshade,100
same,"Plant response rating, Nightshade",eastern black nightshade; [12],100
same,Nightshade plant response rating,eastern black nightshade,100
same,Morningglory plant response rating,morningglory; [8],35
same,"Plant response rating, Morningglory",morningglory; [9],30
same,Morningglory plant response rating,morningglory; [10],70
same,Morningglory plant response rating,morningglory; [19],90
same,"Plant response rating, Velvetleaf",velvetleaf; [13],100
same,Velvetleaf plant response rating,"velvetleaf; Postemergence, scale 0 to 100",90
same,"Plant response rating, Velvetleaf",velvetleaf; [6],90
same,Velvetleaf plant response rating,velvetleaf; [15],100
same,"Plant response rating, Velvetleaf",velvetleaf; [18],90
same,"Plant response rating, Velvetleaf",velvetleaf; [7],60
same,Pigweed plant response rating,redroot pigweed; [8],95
same,"Plant response rating, Pigweed",redroot pigweed; [9],100
same,Pigweed plant response rating,redroot pigweed; [10],95
same,Pigweed plant response rating,redroot pigweed; [19],100
same,"Plant response rating (0 = no effect, 100 = complete control), Crabgrass, Large","large crabgrass; 62 g ai/ha, preemergence",100
same,"Plant response rating, Crabgrass, Large",large crabgrass; [13],100
same,"Plant response rating, Crabgrass, Large",large crabgrass; [14],100
same,"Crabgrass, Large plant response rating","large crabgrass; Postemergence, scale 0 to 100",90
same,"Plant response rating, Crabgrass, Large",large crabgrass; [6],70
same,"Crabgrass, Large plant response rating",large crabgrass; [15],100
same,"Plant response rating, Crabgrass, Large",large crabgrass; [18],70
same,"Plant response rating, Crabgrass, Large",large crabgrass; [7],60
same,"Plant response rating (0 = no effect, 100 = complete control), Bermudagrass","bermudagrass; 62 g ai/ha, preemergence",100
same,"Plant response rating, Bermudagrass",bermudagrass; [13],100
same,"Plant response rating, Bermudagrass",bermudagrass; [14],100
same,Bermudagrass plant response rating,bermudagrass; [16],100
same,"Plant response rating, Bermudagrass",bermudagrass; [6],60
same,Bermudagrass plant response rating,bermudagrass; [17],100
same,"Plant response rating, Bermudagrass",bermudagrass; [18],60
same,"Plant response rating, Bermudagrass",bermudagrass; [7],10
